From patent US20150072933A1, “NOVEL SEQUENCES FOR THE CONTROL OF REPRODUCTION IN FISH” (Yissum Research Development Company of the Hebrew …, priority 2011, published 2015)
“Also recorded” adds a separate entry of the source. *1 amine or outer side, *2 acyl side, *3 side chain or, on linkers, in order; H or OH if unused. Where a SMILES comes first, the peptide text is derived from it. [ ]: non-standard residue; d: D form. NMeF = CN[C@@H](Cc1ccccc1)C(=O)O; Suc = O=C(CCC(=O)[*:2])[*:1]; NMeV = CN[C@H](C(=O)O)C(C)C

Columns and labels:
[1] = test system: zfTac3ra; experiment: Receptor transactivation assay, SRE-Luc reporter (PKC activation), COS-7 cells expressing zfTac3ra; assay type: cell-based, zebrafish; conditions: mean ± SEM
Procedure: (§1) In order to study the signaling pathways of the novel zebrafish NKBs, the entire coding regions of zftac3ra (denoted by SEQ ID NO:6) or zftac3rb (denoted by SEQ ID NO:7), or the cDNA clone for human NK3R (obtained from the Missouri S&T cDNA Resource Center, were inserted into pcDNA3.1 (Invitrogen). The luciferase assay was conducted according to Biran et al., 2008 [4] COS-7 cells were grown in DMEM supplemented with 10% FBS, 1% glutamine, 100 U/ml penicillin, and […] streptomycin (Biological Industries) under 5% CO2 until confluent. Cotransfection of either pc-zftac3ra, pc-zftac3rb or pc-Htac3r (at 3 μg/plate), a reporter plasmid (at 2 μg/plate), and pCMV-β-galactosidase (at 1 μg/plate) was carried out with FuGENE 6.0 reagent (Roche). The cells were serum starved for 36 h, stimulated with vehicle or various concentrations of either human (Sigma) or zebrafish NKBs for 6 h, and then harvested and analyzed. Lysates prepared from the harvested cells were assayed for both luciferase activity and β-galactosidase activity, which was used as an internal standard to normalize the luciferase activity directed by the test plasmid. Transfection experiments were performed in triplicate with three independently isolated sets. Protein structure prediction of zebrafish NKBa, NKBb or NKF were performed on I-Tasser servers.
(§2) The response, binding selectivity and signal transduction pathways of the novel tachykinin receptors to their agonists were evaluated by functional expression analysis, using COS-7 cells.
(§3) The NKB analogues (i.e. the NKBa-analog, NKBb-analog and NKF-analog, as denoted by SEQ ID NO. 44-46) were first analyzed in comparison to their native forms in a transactivation assay, using reporter genes for specific signal transduction pathways. To validate the specificity of the serum-responsive element (SRE)-Luc and cAMP-responsive element (CRE)-Luc reporter systems, specific activators for PLC/PKC and AC/PKA signaling pathways were used in control experiments.
(§4) Thus, the ability of the three novel piscine peptides (namely, NKBa, NKBb and NKF, denoted by SEQ ID NO.40, 41 and 42), as well as the ability of the three analogous agonistic peptides, namely, NKBa-analog, NKBb-analog and NKF-analog, to differentially activate the different tac3 receptors, using SRE as a reporter gene that follows PKC activation and CRE as a reporter gene for the PKA pathway, was tested. Human NK3R (human NKB receptor) and human NKB served as controls.

[2] = test system: Mature female carp; experiment: Gonadotropin release from mature carp in vivo (LH by ELISA); conditions: mature female carp just before spawning, injected 20 μg/kg body weight; listed as NKBa analogue
Procedure: Mature female carp, just before spawning, were injected with NKBa, NKBb and NKF analogues, denoted by SEQ ID NO.44, SEQ ID NO.45 and SEQ ID NO.46, respectively (20 μg/kg body weight). LH levels was measured by specific ELISA, according to Aizen et al. 2012 [33].

[3] = test system: zfTac3rb; experiment: Receptor transactivation assay, SRE-Luc reporter (PKC activation), COS-7 cells expressing zfTac3rb; assay type: cell-based, zebrafish; conditions: mean ± SEM
Procedure: as §1, §2, §3, §4

[4] = test system: Juvenile Tilapia; experiment: Gonadotropin release in vivo from juvenile tilapia (plasma LH and FSH by ELISA); set-up: species or system Tilapia (Oreochromis niloticus); conditions: Juvenile Tilapia, injected at 0.5 or 5 μg/Kg BW
Procedure: Tilapia females (two-months old) were injected with the NKBa analogue denoted by SEQ ID NO.44 or the NKF analogue denoted by SEQ ID NO.46 at 0.5 or 5 μg/kg body weight (BW). Blood was withdrawn from the caudal vein and plasma Luteinizing hormone (LH) and Follicle-stimulating hormone (FSH) levels were measured using a homologous sensitive enzyme-linked immunosorbent assay (ELISA), as described by Aizen et al. 2007 [33].

[5] = test system: zfTac3rb; experiment: Receptor transactivation assay, CRE-Luc reporter (PKA activation), COS-7 cells expressing zfTac3rb; assay type: cell-based, zebrafish; conditions: mean ± SEM
Procedure: as §1, §2, §3, §4

[6] = test system: zfTac3ra; experiment: Receptor transactivation assay, CRE-Luc reporter (PKA activation), COS-7 cells expressing zfTac3ra; assay type: cell-based, zebrafish; conditions: mean ± SEM
Procedure: as §1, §2, §3, §4

[7] = test system: Tilapia pituitary cells; experiment: Gonadotropin release from tilapia pituitary dispersed cells; assay type: cell-based; conditions: 10 nM, 4 hr
Procedure: Tilapia pituitary cells were subjected to enzymatic dispersion. Pituitary cells were stimulated with 10 nM of the NKBa or NKF analogue, denoted by SEQ ID NO.44 and SEQ ID NO.46, respectively, for 4 hr, when the medium was collected. […] Stimulation of tilapia pituitary cells with GnRH at [10 nM] was used as a control.

[8] = biological target: T1, huNK3R (Homo sapiens, UniProt P29371); experiment: Receptor transactivation assay, SRE-Luc reporter (PKC activation), COS-7 cells expressing human NK3R; assay type: cell-based
T1 construct: host or cells: COS-7
T1 sequence (P29371 1-465): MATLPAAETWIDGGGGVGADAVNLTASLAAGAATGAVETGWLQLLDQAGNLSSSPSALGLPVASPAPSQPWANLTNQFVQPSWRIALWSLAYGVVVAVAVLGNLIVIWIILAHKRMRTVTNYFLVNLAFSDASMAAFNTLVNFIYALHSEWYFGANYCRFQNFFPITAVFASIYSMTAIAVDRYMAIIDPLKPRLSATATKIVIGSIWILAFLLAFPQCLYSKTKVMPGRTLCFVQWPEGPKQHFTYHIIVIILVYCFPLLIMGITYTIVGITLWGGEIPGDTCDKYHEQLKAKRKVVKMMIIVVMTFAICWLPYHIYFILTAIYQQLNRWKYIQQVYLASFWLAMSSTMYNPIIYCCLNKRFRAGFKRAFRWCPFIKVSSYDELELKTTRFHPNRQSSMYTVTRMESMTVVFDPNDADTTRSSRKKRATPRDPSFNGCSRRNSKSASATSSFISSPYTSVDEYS
Procedure: In order to study the signaling pathways of the novel zebrafish NKBs, the entire coding regions of zftac3ra (denoted by SEQ ID NO:6) or zftac3rb (denoted by SEQ ID NO:7), or the cDNA clone for human NK3R (obtained from the Missouri S&T cDNA Resource Center, were inserted into pcDNA3.1 (Invitrogen). The luciferase assay was conducted according to Biran et al., 2008 [4] COS-7 cells were grown in DMEM supplemented with 10% FBS, 1% glutamine, 100 U/ml penicillin, and 100 mg/ml streptomycin (Biological Industries) under 5% CO2 until confluent. Cotransfection of either pc-zftac3ra, pc-zftac3rb or pc-Htac3r (at 3 μg/plate), a reporter plasmid (at 2 μg/plate), and pCMV-β-galactosidase (at 1 μg/plate) was carried out with FuGENE 6.0 reagent (Roche). The cells were serum starved for 36 h, stimulated with vehicle or various concentrations of either human (Sigma) or zebrafish NKBs for 6 h, and then harvested and analyzed. Lysates prepared from the harvested cells were assayed for both luciferase activity and β-galactosidase activity, which was used as an internal standard to normalize the luciferase activity directed by the test plasmid. Transfection experiments were performed in triplicate with three independently isolated sets.

[9] = test system: sexually mature female zebrafish; experiment: In vivo effect of NKBs in zebrafish: LH secretion after intraperitoneal injection; conditions: single intraperitoneal injection; for LH secretion: 20 pmol/g body weight, sexually mature female zebrafish
Procedure: In vivo studies involved administering NKBa, NKBb or NKF and the analogues thereof, denoted by SEQ ID NO. 40-42 and 44-46, respectively to immature fish (20 fish/treatment). The circulating levels of E2, 11KT, LH and FSH were determined prior to hormonal manipulations, in order to confirm that these fish were indeed sexually immature. The fish were injected intramuscularly (i.m.) or intraperitonealy (i.p.) at various doses. Adult female zebra fish were injected intraperitoneally with 20 pmol/g body weight. Control fish were injected with saline. Plasma samples were collected at time 0, and specific times after the administration of the peptide/s, to determine the levels of E2, 11KT, LH and FSH.
To further characterize the role of the NKB/NKBR system in fish reproduction the in vivo biological function of zebrafish NKB peptides was next examined.

[10] = test system: NKB receptors (human NKBR, zebrafish Tac3ra, Tac3rb); experiment: Receptor transactivation assay, statements in words across SRE-Luc and CRE-Luc reporters and receptors; assay type: cell-based
Procedure: as §1, §2, §4

[11] = biological target: T2, NKB receptors (human NKBR, zebrafish Tac3ra, Tac3rb) (Homo sapiens, UniProt P29371); experiment: as above; assay type: cell-based; conditions: human NKBR (huNK3R), in both signal transduction systems (SRE-Luc and CRE-Luc)
T2 construct: expressed in transfected cells; host or cells: COS-7
T2 sequence (P29371 1-465): T1 sequence (P29371 1-465)
Procedure: as §1, §2, §4

[12] = test system: NK-2; conditions: GPI; cited from earlier work
[13] = Table 7 (native peptides and analogues), PKC activation, read-out: EC50 using SRE, zfTac3ra
[14] = Table 7 (native peptides and analogues), PKC activation, read-out: EC50 using SRE, zfTac3rb
[15] = Table 6 (native peptides and analogues), PKA activation, read-out: EC50 using CRE-Luc, zfTac3rb
[16] = Table 6 (native peptides and analogues), PKA activation, read-out: EC50 using CRE-Luc, zfTac3ra
[17] = Table 5, COS-7 cells, SRE-Luc follows PKC activation, read-out: EC50 SRE-Luc zfTac3ra
[18] = Table 5, COS-7 cells, SRE-Luc follows PKC activation, read-out: EC50 SRE-Luc zfTac3rb
[19] = Table 5, COS-7 cells, CRE-Luc follows PKA activation, read-out: EC50 CRE-Luc zfTac3rb
[20] = Table 5, COS-7 cells, CRE-Luc follows PKA activation, read-out: EC50 CRE-Luc zfTac3ra

| SMILES | EC50 [1, 13] [nM] | EC50 [3, 14] [nM] | EC50 [5, 15] [nM] | EC50 [6, 16] [nM] | EC50 [1, 17] [nM] | EC50 [3, 18] [nM] | EC50 [5, 19] [nM] | LH secretion [9] | EC50 [6, 20] [nM] | also measured |
| --- | --- | --- | --- | --- | --- | --- | --- | --- | --- | --- |
| CC[C@H](C)[C@H](NC(=O)[C@H](CC(=O)O)NC(=O)CCC(=O)O)C(=O)N[C@@H](Cc1ccccc1)C(=O)N(C)[C@H](C(=O)NCC(=O)N[C@@H](CC(C)C)C(=O)N[C@@H](CCSC)C(N)=O)C(C)C [zfNKBa-analog, Succ-Asp-Ile-Phe-N(Me)Val-Gly-Leu-Met-NH2] (Suc-DIF[NMeV]GLM-NH2) | 0.15 ± 0.19 | 0.29 | 11.9 ± 16.9 | 6.94 ± 1.28 |  |  |  |  |  | LH level [2]: significant elevation; also recorded: increased the level of LH significantly; FSH secretion [4]: significant increase; LH secretion [4]: significant increase; EC50 ([5]; Table 6 (native peptides and analogues), PKA activation, listed as NKBa-analog, read-out: EC50 using CRE-Luc, zfTac3rb): 11.9 nM; release of FSH from tilapia pituitary cells [7]: significantly increased |
| CC[C@H](C)[C@H](NC(=O)[C@H](CC(=O)O)NC(=O)[C@H](Cc1c[nH]cn1)NC(=O)[C@H](CCSC)NC(=O)[C@@H](N)CCC(=O)O)C(=O)N[C@@H](Cc1ccccc1)C(=O)N[C@H](C(=O)NCC(=O)N[C@@H](CC(C)C)C(=O)N[C@@H](CCSC)C(N)=O)C(C)C [zfNKBa] (H-EMHDIFVGLM-NH2) | 0.62 ± 0.22 | 26.1 | 16.4 ± 12 | 4.75 ± 1.48 | 0.5 ± 0.17 | 1.47 ± 1.66 | 4.55 ± 1.57 | significant increase; also recorded: significant LH secretion | 5.75 ± 1.45 | SRE-driven luciferase activity, response ([8]; COS-7 cells transiently transfected with human NK3R): elicited an increased response; EC50 ([8]; Table 5, COS-7 cells, SRE-Luc follows PKC activation, mean ± SEM): 0.49 ± 0.18 nM; EC50 ([5]; Table 6 (native peptides and analogues), PKA activation, listed as NKBa, read-out: EC50 using CRE-Luc, zfTac3rb): 16 nM; magnitude of the induced LH discharge ([9]; compared with GnRH): comparable with that observed in response to GnRH; potency ([10]; both zebrafish tac3 receptors, in both signal transduction systems): most potent among all tachykinins examined; effectiveness in the transactivation assay ([10]; native peptides versus analogues, Example 12): most effective peptide; potency [11]: high potency |
| CSCC[C@H](NC(=O)[C@H](CC(C)C)NC(=O)CNC(=O)[C@H](Cc1ccccc1)N(C)C(=O)[C@H](Cc1ccccc1)NC(=O)[C@H](CC(=O)O)NC(=O)CCC(=O)O)C(N)=O [Senktide, Succ-Asp-Phe-N(Me)Phe-Gly-Leu-Met-NH2, reference compound] (Suc-DF[NMeF]GLM-NH2) | 2.68 ± 1.44 | 2.72 ± 1.54 | 20.1 ± 15.1 | 49 ± 14.9 | 2.67 ± 1.44 | 2.72 ± 1.54 | 20.1 ± 15.1 | less pronounced | 49 ± 14.9 | EC50 [12]: > 200000 nM |
